{"source": "patent US20240285730A1", "about": "“COMPOSITIONS AND METHODS FOR THE TREATMENT OF GRAFT VERSUS HOST DISEASE” (VectivBio AG, priority 2021, published 2024)", "key": {"[1]": {"test_system": "WBC, NEU and LYMPH", "test": "Melphalan-induced immunosuppression (WBC, NEU, LYMPH)", "format": "in vivo, Balb/c mice", "method": "In a third experiment, the effect of apraglutide on melphalan-induced immunosuppression was assessed (FIG. 13). Three groups of Balb/c mice were included: (A) vehicle; (B) melphalan on Day 9; (C) melphalan on Day 9, apraglutide pre-treatment on Days 1, 3, 5, 7 and continued as co-administration on Days 9, 11, and 13. WBC, NEU and LYMPH were assessed."}, "[2]": {"test_system": "fecal microbiota (Bacteroidetes, Firmicutes)", "test": "Fecal microbiota composition during cytarabine chemotherapy (16S taxonomical meta-sequencing)", "format": "in vivo, Balb/c mice", "conditions": "for changes in the composition of bacterial species (Bacteroidetes, Firmicutes): Days 0 to 18"}, "[3]": {"test_system": "human peripheral blood mononuclear cell (hPBMC) engraftment", "test": "Engraftment of human PBMC in total-body-irradiated NOG mice", "format": "in vivo, immunodeficient (NOG) mice", "method": "Engraftment rate was determined through CD45 expression in blood, bone marrow and spleen."}, "[4]": {"test_system": "cytarabine-induced toxicity", "test": "Apraglutide dose-response study with cytarabine chemotherapy", "format": "in vivo, BALB/cJ female mice", "conditions": "for polymorphonuclear (PMN) cell count: cytarabine alone or combined with hGLP-2 or apraglutide", "method": "The apraglutide dose-dependent impact on the immunosuppressive effect of cytarabine was evaluated. The effect of cytarabine treatment on polymorphonuclear (PMN) cell count was determined (FIG. 20). […] In a separate study during which animals treated with cytarabine alone or in combination with apraglutide initiated before cytarabine (Days-4 to +12) were allowed to survive for 4 additional weeks."}, "[5]": {"test_system": "acute gastrointestinal GvHD mouse model", "test": "Acute GvHD mouse model, first experiment (8.5 Gy irradiation + allogeneic bone marrow/spleen cell transplant)", "format": "in vivo, BALB/cJ male mice", "method": "Mouse #3 (Group A), #13 (Group B) and #20 (Group B) were administered the cells by subcutaneous injection rather than intravenously. Mouse #5 (Group B) and #10 (Group B) received half the cells by intravenous injection and half by subcutaneous injection.\nVarious histological parameters of the jejunum were also measured, including single cell necrosis levels, necrosis of all crypts, shortening of villi, cryptal hyperplasia (regenerative), cell infiltrate, and cryptal abscess. These histological parameters were graded on a standard histological grading system (1 to 3). […] These indicate that the administration of apraglutide has a protective effective against jejunal mucosal damages induced by irradiation and GvHD."}, "[6]": {"test_system": "blood cell count", "test": "Cytarabine-induced immunosuppression (blood cell counts)", "format": "in vivo, Balb/c mice", "conditions": "4 weeks after the end of treatment", "method": "In a second experiment, apraglutide's effect on the ability of cytarabine to induce immunosuppression was assessed. The experiment included three groups of Balb/c mice: (A) vehicle; (B) cytarabine on Days 5-9; (C) cytarabine on Days 5-9, concomitant apraglutide on Days 5-18. RBC, platelets, WBC, NEU and LYMPH were assessed. A cohort was allowed to survive for 4 weeks to assess the effect of apraglutide on immunosuppression recovery (FIG. 12)."}, "[7]": {"test_system": "acute GVHD-induced intestinal damage", "test": "TBI-induced intestinal damage with allogeneic transplantation (Example 2, second experiment)", "protocol": "In a second experiment, TBI-induced intestinal damaged BALB/cJ mice received allogeneic transplantation and were treated with apraglutide (3.3 mg/kg) or vehicle on Days −9, −7, −5, −3-1, +1, +3, +5, +7. Intestinal damage indicative of GvHD (histological changes, length, hemorrhage, inflammation), body weight, and survival were assessed."}, "[8]": {"test_system": "chemotherapy-induced gastrointestinal (GI) damage", "test": "Chemotherapy-induced (cytarabine or melphalan) intestinal damage in mice", "format": "in vivo, Balb/c mice", "method": "In a first experiment, 4 groups of Balb/c mice: (A) vehicle only; (B) cytarabine on Days 5-9, no apraglutide given; (C) cytarabine on Days 5-9; concomitant apraglutide on Days 5-18; (D) cytarabine on Days 5-9; pre-treatment apraglutide on Days 1, 3, and continued as concomitant treatment on Days 5, 8, 11, 14, and 17. Treatment groups were dosed with 30 mg/kg cytarabine and/or apraglutide 3.3 mg/kg.\nIn a second experiment, 3 treatment groups of Balb/c mice: (A) vehicle only; (B) melphalan on Day 9, no apraglutide; (C) melphalan on Day 9; pre-treatment apraglutide on Days 1, 3, 5, 7 and continued as concomitant treatment on Days 9, 11, and 13.\nIn both models, mice that received vehicle without any treatment served as controls. Intestinal tissue histology, body weight, survival, and plasma citrulline, a marker of total mucosal mass and intestinal growth, was assessed in both models."}, "[9]": {"test_system": "acute gastrointestinal GvHD mouse model", "test": "Acute GvHD mouse model, second experiment (7.0 Gy irradiation + allogeneic transplant)", "protocol": "In a second experiment BALB/cJ male mice were separated into three groups, Group A, Group B and Group C. Groups A and B consisted of 10 mice and Group C consisted of 5 mice.\nMice in Group A received subcutaneous injections of apraglutide in an amount of 3 mg/kg/mouse (administered in 300 μl of vehicle), every second day from Day −9 to Day +7 (Days: −9, −7, −5, −3-1, +1, +3, +5, +7).\nMice in Group B received subcutaneous injections of 300 μl of vehicle control every second day starting from Day −9 to Day +7 (Days: −9, −7, −5, −3−1, +1, +3, +5, +7).\nMice in Group C received subcutaneous injections of 300 μl of vehicle control every second day starting from Day −9 to Day +7 (Days: −9, −7, −5, −3−1, +1, +3, +5, +7).\nOn Day −1 of the experiment, all mice in Groups A and B were irradiated with 7.0 Gy using an linac x-ray source. Group C was not irradiated but were injected with the vehicle only.\nOn Day 0 of the experiment, bone marrow and T cells from C57BL/6J mice were collected, prepared and transplanted into the mice of Group A and Group B. Each mouse in Group A and Group B was intravenously injected with 10 million bone marrows cells extracted from the femurs of the C57BL/6J mice and 2.5 million spleen cells extracted from the C57BL/6J mice.\nMorbidity, mortality, body weight, clinical signs (diarrhea, appearance and behavior), length of intestinal segments, and histopathology of the intestine, skin, spleen and liver were monitored in the mice of Group A, Group B and Group C. All mice were sacrificed at Day +14 at the latest."}, "[10]": {"test_system": "human leukemia cells", "conditions": "vs vehicle", "protocol": "In a first experiment, cytarabine's anti-tumor effects were assessed in leukemic NOD/SCID mice (FIG. 11a). Apraglutide or vehicle was administered on Days −4 to 4. Cytarabine or vehicle was administered on Days 0-4. Bone marrow and spleen samples were collected on Day 7 and percentage of hCD45+ cells determined."}, "[11]": {"conditions": "apraglutide 3 mg/kg s.c., histological grading 1 to 3, vs vehicle"}, "[12]": {"conditions": "apraglutide 3.3 mg/kg vs vehicle"}}, "note": "Entries after “also recorded” stand apart in the source; their conditions may differ. Square brackets hold non-standard residues; d marks the D form. Peptide text beside a SMILES is read from it. ξ: configuration not given here. Ile(3ξ) = CCC(C)[C@H](N)C(=O)O; Thr(3ξ) = CC(O)[C@H](N)C(=O)O; Nle = CCCC[C@H](N)C(=O)O"}
{"smiles": "CCCC[C@H](NC(=O)[C@H](CCC(=O)O)NC(=O)[C@H](CC(=O)O)NC(=O)[C@H](CO)NC(=O)[C@H](Cc1ccccc1)NC(=O)[C@H](CO)NC(=O)CNC(=O)[C@H](CC(=O)O)NC(=O)CNC(=O)[C@@H](N)Cc1c[nH]cn1)C(=O)N[C@H](Cc1ccccc1)C(=O)N[C@H](C(=O)N[C@H](C(=O)N[C@@H](CC(C)C)C(=O)N[C@@H](CC(=O)O)C(=O)N[C@@H](CC(C)C)C(=O)N[C@@H](CC(C)C)C(=O)N[C@@H](C)C(=O)N[C@@H](C)C(=O)N[C@@H](CCCNC(=N)N)C(=O)N[C@@H](CC(=O)O)C(=O)N[C@@H](Cc1ccccc1)C(=O)N[C@H](C(=O)N[C@@H](CC(N)=O)C(=O)N[C@@H](Cc1c[nH]c2ccccc12)C(=O)N[C@@H](CC(C)C)C(=O)N[C@H](C(=O)N[C@@H](CCC(N)=O)C(=O)N[C@H](C(=O)N[C@@H](CCCCN)C(=O)N[C@H](C(=O)N[C@H](C(=O)N[C@@H](CC(=O)O)C(N)=O)C(C)O)C(C)CC)C(C)O)C(C)CC)C(C)CC)C(C)CC)C(C)O", "note": "(stereo partly drawn) [apraglutide] (H-HGDGSFSDE[Nle][dF][Thr(3ξ)][Ile(3ξ)]LDLLAARDF[Ile(3ξ)]NWL[Ile(3ξ)]Q[Thr(3ξ)]K[Ile(3ξ)][Thr(3ξ)]D-NH2)", "values": [{"measurement": "impact on cytarabine- or melphalan-induced immunosuppression", "setting": "[1]; combination with apraglutide", "result": "no negative impact"}, {"measurement": "changes in the composition of bacterial species (Bacteroidetes, Firmicutes)", "setting": "[2]", "result": "the effect was reduced"}, {"measurement": "engraftment rate in blood, spleen and bone marrow (CD45 expression)", "setting": "[3]; apraglutide 3.3 mg/kg Days −6 to 18, TBI 1.44 Gy, hPBMC 3×10^7", "result": "not affected"}, {"measurement": "hCD45+ cells infiltration in the intestinal wall", "setting": "[3]; apraglutide vs vehicle", "result": "no difference"}, {"measurement": "improvement in animal survival vs cytarabine alone", "setting": "[4]; all apraglutide-treated groups", "result": "statistically significant"}, {"measurement": "plasma citrulline concentrations", "setting": "[4]; apraglutide 0.33 mg/kg and 1.1 mg/kg with cytarabine vs cytarabine alone", "result": "improvement in citrulline concentrations"}, {"measurement": "polymorphonuclear (PMN) cell count", "setting": "[4]", "result": "not reversed"}, {"measurement": "initial weight loss", "setting": "[4]; cytarabine combined with 0.11 mg/kg apraglutide or hGLP-2 (0.60 mg/kg twice daily)", "result": "did not decrease initial weight loss"}, {"measurement": "colon length", "setting": "[5]; 8.5 Gy + C57BL/6J bone marrow/spleen cells, apraglutide 3 mg/kg s.c. every second day Day −9 to +7, vs vehicle group", "result": "increased colon lengths that were nearly the same as the control mice"}, {"measurement": "mean severity score of the regenerative cryptal hyperplasia (jejunum)", "setting": "[5]; [11]", "result": "slightly increased"}, {"measurement": "overall mean severity score of mucosal degenerative/inflammatory changes in the jejunum", "setting": "[5]; [11]", "result": "slightly decreased"}, {"measurement": "recovery of hematological parameters", "setting": "[6]", "result": "did not impact"}, {"measurement": "lymphocyte engraftment", "setting": "[7]; apraglutide 3.3 mg/kg Days −9 to +7", "result": "successfully achieved"}, {"measurement": "median survival", "setting": "[7]; [12]", "result": "similar"}, {"measurement": "post-mortem histological examination, mucosal degenerative/inflammatory changes", "setting": "[7]; [12]", "result": "less mucosal degenerative/inflammatory changes"}, {"measurement": "weight loss", "setting": "[7]; [12]", "result": "similar"}, {"measurement": "overall survival", "setting": "[7]; on Day +9, apraglutide 3.3 mg/kg", "result": 40, "unit": "%"}, {"measurement": "degenerative intestinal changes (villi and crypt atrophy) caused by cytarabine or melphalan", "setting": "[8]; apraglutide co-administration, 3.3 mg/kg", "result": "reduced"}, {"measurement": "chemotherapy-induced weight loss", "setting": "[8]; apraglutide with cytarabine or melphalan", "result": "attenuated"}, {"measurement": "overall survival", "setting": "[8]; vs vehicle-only or chemotherapy-only groups", "result": "improved overall survival"}, {"measurement": "weight of duodenum, ileum and jejunum", "setting": "[8]; with apraglutide", "result": "increased in weight"}, {"measurement": "mice survived past Day 9", "setting": "[9]; 7.0 Gy + allogeneic transplant, apraglutide 3 mg/kg s.c.", "result": 40, "unit": "%"}, {"measurement": "median survival", "setting": "[9]; 7.0 Gy + allogeneic transplant, apraglutide 3 mg/kg s.c. Day −9 to +7", "result": 9, "unit": "days"}, {"measurement": "body weight of surviving mice beyond Day 9", "setting": "[9]; Group A", "result": "regained body weight"}, {"measurement": "length of the small intestine", "setting": "[9]; Groups A, B and C compared", "result": "no differences were observed"}, {"measurement": "weight loss, Group A vs Group B", "setting": "[9]; apraglutide 3 mg/kg s.c. vs vehicle, both TBI/BMT", "result": "No significant difference"}, {"measurement": "animal survival (Kaplan-Meier)", "setting": "[9]; apraglutide initiated before TBI/BMT vs TBI/BMT animals", "result": "enhanced survival; also recorded: significant difference relative to TBI/BMT animals"}, {"measurement": "mice with intestinal pathological score of 0", "setting": "[9]; score 0 least severe to 4 most severe, Group A, 10 mice", "result": "four out of out of ten"}]}
{"smiles": "N[C@@H](Cc1ccc(N(CCCl)CCCl)cc1)C(=O)O", "note": "[melphalan, Melphalan, reference compound]", "values": [{"measurement": "WBC and LYMPH vs vehicle", "setting": "[1]; melphalan on Day 9, with or without apraglutide", "result": "severe decreases"}]}
{"smiles": "Nc1ccn([C@@H]2O[C@H](CO)[C@@H](O)[C@@H]2O)c(=O)n1", "note": "[Cytarabine only, Cytarabine]", "values": [{"measurement": "Bacteroidetes, mean (Table 1b)", "setting": "[2]; Day 0", "result": 18.3}, {"measurement": "Firmicutes, mean (Table 1b)", "setting": "[2]; Day 0", "result": 78.7}, {"measurement": "unclassified phylum, mean (Table 1b)", "setting": "[2]; Day 0", "result": 1.3}, {"measurement": "Bacteroidetes, mean (Table 1b)", "setting": "[2]; Day 18", "result": 48.7}, {"measurement": "Firmicutes, mean (Table 1b)", "setting": "[2]; Day 18", "result": 49.6}, {"measurement": "unclassified phylum, mean (Table 1b)", "setting": "[2]; Day 18", "result": 1.2}, {"measurement": "changes in the composition of bacterial species (Bacteroidetes, Firmicutes)", "setting": "[2]", "result": "increasing the Bacteroidetes population and decreasing the proportion of Firmicutes bacteria"}, {"measurement": "polymorphonuclear (PMN) cell count", "setting": "[4]", "result": "depleted PMN counts"}, {"measurement": "reduction in human leukemia cells", "setting": "[10]", "result": "significantly greater than vehicle"}]}
